Values quoted from earlier work, collected in patent publication US20230033410A1, “COMPLEX FORMULATION COMPRISING SITAGLIPTIN AND DAPAGLIFLOZIN, AND PREPARATION METHOD THEREFOR” (HANMI PHARM. CO.,LTD., priority 2019, published 2023).
Where two headings read alike, the source gives them in different places.

Settings: plasma

| Structure (SMILES) | Tmax (range in brackets) [h] | Tmax (stated for both drugs) |
| --- | --- | --- |
| CCOc1ccc(Cc2cc([C@@H]3O[C@H](CO)[C@@H](O)[C@H](O)[C@H]3O)ccc2Cl)cc1 [dapagliflozin, (2S,3R,4R,5S,6R)-2-[4-chloro-3-(4-ethoxybenzyl)phenyl]-6-(hydroxymethyl)tetrahydro-2H-pyran-3,4,5-triol] | 1 to 2 | about 1 hour |
| N[C@@H](CC(=O)N1CCn2c(nnc2C(F)(F)F)C1)Cc1cc(F)c(F)cc1F [sitagliptin, (R)-3-amino-1-(3-(trifluoromethyl)-5,6-dihydro-[1,2,4]triazolo[4,3-a]pyrazin-7(8H)-yl)-4-(2,4,5-trifluorophenyl)butan-1-one] | 1 to 4 | about 1 hour |
